Where two headings read alike, the source gives them in different places.
Legend:
Tetranychus urticae = Tetranychus urticae spray test, OP-resistant; type: in vivo; conditions: foliar, 144 h, bean leaf discs, after 6 days, read-out: efficacy
Experimental: Tetranychus urticae—Spray Test, OP-Resistant
To produce a suitable preparation of active compound, 1 part by weight of active compound is dissolved using the specified parts by weight of solvent and made up with water containing an emulsifier concentration of 1000 ppm until the desired concentration is attained. To produce further test concentrations, the formulation is diluted with emulsifier-containing water.
Discs of bean leaves (Phaseolus vulgaris) infested with all stages of the greenhouse red spider mite (Tetranychus urticae) are sprayed with an active compound preparation of the desired concentration.
After 6 days, the efficacy in % is determined. 100% means that all the spider mites have been killed; 0% means that no spider mites have been killed.

Myzus persicae [1] = test: Myzus persicae oral test; type: in vivo; conditions: 120 h, oral uptake, after 5 days, read-out: efficacy
How it was run: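 Compound dissolved in acetone, diluted in water, then mixed 50:150 μl with IPL41 insect medium (33%+15% sugar). Mixed-population green peach aphids feed through a parafilm seal on the solution; mortality scored as % efficacy after 5 days (100% = all killed).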

Meloidogyne incognita = Meloidogyne incognita test; type: in vivo; conditions: 336 h, lettuce, after 14 days, read-out: nematicidal efficacy (formation of galls)
How it was run: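 Active compound in acetone, diluted with water, added to sand-filled vessels with M. incognita eggs/larvae and lettuce seeds. After 14 days, efficacy scored by root gall formation: 100% = no galls, 0% = galls equal to untreated control.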

Myzus persicae [2] = test: Myzus persicae spray test (Chinese cabbage leaf discs); type: in vivo; conditions: foliar, 120 h, after 5-6 days, read-out: efficacy
How it was run: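 Chinese cabbage leaf discs infested with all stages of green peach aphid were sprayed with compound formulated in acetone/DMF and emulsifier-containing water. Efficacy in % was scored after 5-6 days, with 100% meaning all aphids killed and 0% none killed.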

Phaedon cochleariae = Phaedon cochleariae spray test; type: in vivo; conditions: foliar, 168 h, Chinese cabbage leaf discs, larvae, after 7 days, read-out: efficacy
How it was run: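 Compound dissolved in solvent and diluted with water containing 1000 ppm emulsifier to test concentrations. Efficacy read after 7 days as % beetle larvae killed (100% all killed, 0% none).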

[3] = log P by HPLC on reversed-phase column (EEC Directive 79/831 Annex V.A8); type: physicochemical; conditions: reversed-phase HPLC column (C18)
Experimental: The log P values were determined according to EEC Directive 79/831 Annex V.A8 by HPLC (highperformance liquid chromatography) on a reversed-phase column (C18). Temperature 43° C. The calibration is effected with unbranched alkan-2-ones (having 3 to 16 carbon atoms), for which the log P values are known. The determination of the M^+ by LC-MS in the acidic range was carried out at pH 2.7 using the mobile phases 0.1% aqueous formic acid and acetonitrile (contains 0.1% formic acid); linear gradient from 10% acetonitrile to 95% acetonitrile, instrument: Agilent 1100 LC system, Agilent MSD system, HTS PAL. The determination of the M^+ by LC-MS in the neutral range was carried out at pH 7.8 using the mobile phases 0.001 molar aqueous ammonium bicarbonate solution and acetonitrile; linear gradient from 10% acetonitrile to 95% acetonitrile. The log P values for the acidic range (as log P [a]) and/or for the neutral range (as log P [n]) were stated in the tables and preparation examples.

Musca domestica = Musca domestica test; type: in vivo; conditions: 48 h, adult houseflies, after 2 days, read-out: efficacy (kill in %)
Experimental: Musca domestica Test Solvent: dimethyl sulphoxide To produce a suitable preparation of active compound, 10 mg of active compound are mixed with 0.5 ml of dimethyl sulphoxide, and the concentrate is diluted with water to the desired concentration. Vessels containing a sponge treated with sugar solution and the active compound preparation of the desired concentration are populated with 10 adult houseflies (Musca domestica). After 2 days, the kill in % is determined. 100% means that all of the flies have been killed; 0% means that none of the flies have been killed.

Lucilia cuprina = Lucilia cuprina test; type: in vivo; conditions: 48 h, L1 larvae, after 2 days, read-out: efficacy (kill in %)
Experimental: Lucilia cuprina Test Solvent: dimethyl sulphoxide To produce a suitable preparation of active compound, 10 mg of active compound are mixed with 0.5 ml of dimethyl sulphoxide, and the concentrate is diluted with water to the desired concentration. About 20 L1 larvae of the Australian sheep blowfly (Lucilia cuprina) are transferred into a test vessel containing minced horsemeat and the active compound preparation of the desired concentration. After 2 days, the kill in % is determined. 100% means that all the larvae have been killed; 0% means that no larvae have been killed.

[4] = neutral range, pH 7.8, HPLC C18, 43° C., read-out: log P (neutral)
[5] = acidic range, pH 2.7, HPLC C18, 43° C., read-out: log P (acidic)

SMILES | pest or weed control at 500 g/ha (Tetranychus urticae) [%] | pest or weed control at 20 ppm (Meloidogyne incognita) [%] | pest or weed control at 500 g/ha (Myzus persicae [2]) [%] | further results
Cn1cc(C(=O)NS(=O)(=O)c2c(Cl)cccc2Cl)nc1-c1cccc(Cl)c1Cl [Example 568] | 90 | 90 | 100 | pest or weed control at 20 ppm (Myzus persicae [1]): 100%; pest or weed control at 500 g/ha (Phaedon cochleariae): 83%
Cn1c(C(=O)OC(C)(C)C)cnc1Br [tert-butyl 2-bromo-1-methyl-1H-imidazole-5-carboxylate] |  |  |  | chromatographic logP [3, 4]: 2.54
Cn1cc(C(=O)NS(=O)(=O)c2cccc(Cl)c2Cl)nc1-c1c(F)cccc1F [Example 173] | 90 | 100 | 100 | pest or weed control at 20 ppm (Myzus persicae [1]): 100%
Cn1cc(C(=O)NS(=O)(=O)c2cccc(Cl)c2F)nc1-c1c(F)cccc1F [Example 315] | 90 | 100 | 100 | pest or weed control at 20 ppm (Myzus persicae [1]): 100%
Cc1c(C(=O)O)nc(-c2c(F)cccc2F)n1C [2-(2,6-difluorophenyl)-1,5-dimethyl-1H-imidazole-4-carboxylic acid] |  |  |  | chromatographic logP [3, 4]: 2
COc1ccc(F)cc1S(=O)(=O)NC(=O)c1cn(C)c(-c2c(F)cccc2Cl)n1 [Example 155] |  |  | 90 | pest or weed control at 20 ppm (Myzus persicae [1]): 100%; pest or weed control at 100 ppm (Musca domestica): 80%
Cn1cnc(C(=O)OC(C)(C)C)c1 [tert-butyl 1-methyl-1H-imidazole-4-carboxylate] |  |  |  | chromatographic logP [3, 5]: 0.63
Cn1c(C(=O)O)cnc1-c1c(F)cccc1F [2-(2,6-difluorophenyl)-1-methyl-1H-imidazole-5-carboxylic acid] |  |  |  | chromatographic logP [3, 5]: 0.46
Cc1ccccc1S(=O)(=O)NC(=O)c1nc(-c2ccccc2Cl)n(C)c1Cl [5-chloro-2-(2-chlorophenyl)-1-methyl-N-[(2-methylphenyl)sulphonyl]-1 Himidazole-4-carboxamide] |  |  |  | chromatographic logP [3, 5]: 3.17
Cc1ccsc1S(=O)(=O)NC(=O)c1cn(C)c(-c2ccccc2Cl)n1 [Example 212] | 90 | 90 | 100 | pest or weed control at 20 ppm (Myzus persicae [1]): 100%
COc1ccc(C)c(S(=O)(=O)NC(=O)c2cn(C)c(-c3ncccc3Cl)n2)c1 [Example 582] | 90 | 90 | 100 | pest or weed control at 4 ppm (Myzus persicae [1]; 4 ppm): 100%; pest or weed control at 500 g/ha (Phaedon cochleariae): 83%
CCOC(=O)c1cc(OC)n(-c2ccccc2Cl)n1 [ethyl 1-(2-chlorophenyl)-5-methoxy-1H-pyrazole-3-carboxylate] |  |  |  | chromatographic logP [3, 5]: 2.61
Cn1cc(C(=O)NS(=O)(=O)c2ccc(Cl)cc2)nc1-c1c(F)cccc1F [Example 46] | 90 | 100 | 90 | 
Cn1cc(C(=O)O)nc1-c1c(F)cccc1F [2-(2,6-difluorophenyl)-1-methyl-1H-imidazole-4-carboxylic acid] |  |  |  | chromatographic logP [3, 4]: 2.3
Cc1ccccc1S(=O)(=O)NC(=O)c1cn(C)c(-c2ccccc2F)n1 [Example 32] |  | 90 | 90 | pest or weed control at 20 ppm (Myzus persicae [1]): 100%; pest or weed control at 100 ppm (Musca domestica): 80%
CCOC(=O)c1nc(-c2c(F)cccc2F)[nH]c1CC [ethyl 2-(2,6-difluorophenyl)-5-ethyl-1H-imidazole-4-carboxylate] |  |  |  | chromatographic logP [3, 5]: 1.73
CCOC(=O)c1nc(-c2c(F)cccc2F)n(C)c1C [ethyl 2-(2,6-difluorophenyl)-1,5-dimethyl-1H-imidazole-4-carboxylate] |  |  |  | chromatographic logP [3, 4]: 2

SMILES | pest or weed control at 500 g/ha (Tetranychus urticae) [%] | pest or weed control at 20 ppm (Meloidogyne incognita) [%] | pest or weed control at 500 g/ha (Myzus persicae [2]) [%] | further results
Cc1cc(S(=O)(=O)NC(=O)c2cn(C)c(-c3ccccc3Cl)n2)c(C)s1 [Example 217] | 100 | 90 | 90 | pest or weed control at 20 ppm (Myzus persicae [1]): 100%; pest or weed control at 500 g/ha (Phaedon cochleariae): 83%
COc1ccc(OC)c(S(=O)(=O)NC(=O)c2cn(C)c(-c3c(F)cccc3Cl)n2)c1 [Example 151] |  |  | 100 | pest or weed control at 100 ppm (Musca domestica): 100%
CCc1[nH]c(-c2c(F)cccc2F)nc1C(=O)O [2-(2,6-difluorophenyl)-5-ethyl-1H-imidazole-4-carboxylic acid] |  |  |  | chromatographic logP [3, 4]: 0.45
CCOC(=O)c1cc(O)n(-c2ccccc2Cl)n1 [ethyl 1-(2-chlorophenyl)-5-hydroxy-1H-pyrazole-3-carboxylate] |  |  |  | chromatographic logP [3, 5]: 1.75
Cn1cc(C(=O)OC(C)(C)C)nc1-c1c(F)cccc1F [tert-butyl 2-(2,6-difluorophenyl)-1-methyl-1H-imidazole-4-carboxylate] |  |  |  | chromatographic logP [3, 4]: 2.3
CCOC(=O)c1ncn(C)c1C [ethyl 1,5-dimethyl-1H-imidazole-4-carboxylate] |  |  |  | chromatographic logP [3, 4]: 0.85
Cn1cc(C(=O)OC(C)(C)C)nc1Br [tert-butyl 2-bromo-1-methyl-1H-imidazole-4-carboxylate] |  |  |  | chromatographic logP [3, 5]: 2.41
CCOC(=O)c1nc(Br)n(C)c1C [Ethyl 2-Bromo-1,5-Dimethyl-1H-Imidazole-4-Carboxylate] |  |  |  | chromatographic logP [3, 4]: 1.69
Cc1c(F)cccc1S(=O)(=O)NC(=O)c1cn(C)c(-c2c(F)cccc2F)n1 [Example 318] | 90 | 90 | 100 | pest or weed control at 20 ppm (Myzus persicae [1]): 100%; pest or weed control at 500 g/ha (Phaedon cochleariae): 100%
CCS(=O)(=O)NC(=O)c1cn(C)c(-c2c(Cl)cccc2Cl)n1 [Example 82] | 90 | 90 | 90 | 
Cn1c(C(=O)OC(C)(C)C)cnc1-c1c(F)cccc1F [tert-butyl 2-(2,6-difluorophenyl)-1-methyl-1H-imidazole-5-carboxylate] |  |  |  | chromatographic logP [3, 4]: 3
CCn1cc(C(=O)NS(=O)(=O)CC)nc1-c1ccccc1Cl [Example 78] | 90 | 90 | 90 | 
COc1ccc(Cl)c(S(=O)(=O)NC(=O)c2nc(-c3ccccc3Cl)n(C)c2C)c1 [Example 104] | 90 | 90 |  | pest or weed control at 20 ppm (Myzus persicae [1]): 100%; pest or weed control at 500 g/ha (Phaedon cochleariae): 100%
Cc1ccc(S(=O)(=O)NC(=O)c2cn(C)c(-c3c(F)cccc3F)n2)s1 [Example 351] | 90 | 90 |  | pest or weed control at 100 g/ha (Myzus persicae [2]; 100 g/ha): 90%
COc1cc(C(=O)O)nn1-c1ccccc1Cl [1-(2-chlorophenyl)-5-methoxy-1H-pyrazole-3-carboxylic acid] |  |  |  | chromatographic logP [3, 5]: 1.63
COc1ccc(Cl)c(S(=O)(=O)NC(=O)c2cn(C)c(-c3c(Cl)cccc3Cl)n2)c1 [Example 101] | 90 | 90 | 90 | pest or weed control at 20 ppm (Myzus persicae [1]): 100%; pest or weed control at 100 ppm (Lucilia cuprina): 100%; pest or weed control at 500 g/ha (Phaedon cochleariae): 100%
Cn1cncc1C(=O)OC(C)(C)C [tert-butyl 1-methyl-1H-imidazole-5-carboxylate] |  |  |  | chromatographic logP [3, 4]: 1.71
